From US10004718B2, “Erythropoietin expression promoter” (TOHOKU UNIVERSITY, priority 2012, dated 2018)

Assays:
[1] = test system: MCA (middle cerebral artery) occlusion mouse models; assay: Cerebral ischemic injury, MCA occlusion mouse model (TTC staining); type: in vivo; details: 40 mg/kg intraperitoneal 4 hours before ischemia, 24 hours after reperfusion, vs DMSO, n=1
Description: Two types of compounds (compounds #4 and 35) (40 mg/kg of mouse body weight) were each intraperitoneally administered to a mouse 4 hours before ischemia (n=1). A vehicle (DMSO) was administered to a control (n=1). Anesthesia was induced in each mouse with 4% halothane and oxygen and maintained by the intraperitoneal administration of ketamine (40 mg/kg) and xylazine (4 mg/kg) at 30-minute intervals. After the induction of systemic anesthesia, bifurcation of the common carotid artery was exposed under a microscope. A 6-0 nylon thread having a silicon-coated tip was inserted from the internal carotid artery toward the central side so that its tip reached the anterior communicating artery. The common carotid artery was further ligated to block blood flow into the middle cerebral artery. After the ischemic burden for 30 minutes, the nylon thread was removed so that the ligated common carotid artery was released to induce reperfusion.
24 hours after the reperfusion, each mouse was cervically dislocated and then decapitated to excise the brain. Five coronal sections of the cerebrum having a thickness of 2 mm were prepared from the boundary between the cerebrum and the cerebellum. The coronal sections of the cerebrum were stained with TCC through a reaction at 37° C. for 20 minutes with a TTC solution diluted to 1.5% with PBS. […]

[2] = test system: human kidney-derived cell line HK-2; assay: Renal protective effect: cisplatin cytotoxicity to HK-2 cells; type: cell-based; details: for HK-2 cell death by cisplatin: cisplatin 30 μM
Description: The HK-2 cells were seeded at 5×10^3 cells/well to a 96-well cell culture plate and then cultured overnight. Cisplatin and compound #4 were mixed at 30 μM and each concentration (30, 10, 3, 1, 0.3, 0.1, 0.03, 0.01, and 0.003 μM), respectively, into DMEM/F12 common medium. After further culture for 24 hours, conversion to formazan dye by mitochondrial dehydrogenase in live cells was detected by the measurement of absorbance at OD […] using a kit (Cell counting kit-8, manufactured by Dojindo Laboratories) to analyze the ratio of live cells. HK-2 cells cultured in the absence of cisplatin (“Cisplatin-” of FIG. 14) and HK-2 cells cultured in the presence of cisplatin (30 μM) and in the absence of the compound #4 (“Cisplatin+” of FIG. 14) were used as controls.
The cells were cultured in advance for 1 hour with the compound #4 of the present invention having a concentration of 3 μM and then analyzed according to the method described in Example 12.

**Q.** Which results are given for `O=C(CC(C(=O)O)c1c[nH]c2ccccc12)c1ccc(F)cc1` (stereo not shown) [compound #4, 4-(4-Fluorophenyl)-2-(1H-indol-3-yl)-4-oxo-butanoic acid]?
**A.** volume of the cerebral infarction site [1]: decreased; HK-2 cell death by cisplatin ([2]; compound at a concentration around 30 μM): efficiently suppress cell death; HK-2 cell death by cisplatin ([2]; compound at least at a concentration of 1 to 300 μM, 24 hours): significantly suppressed; HK-2 cell death by cisplatin with preincubation compared with no preincubation ([2]; preincubation 1 hour with 3 μM compound): further suppressed
